Source: US5593984A, “Cephalosporin derivatives” (Yuhan Corporation, priority 1992, dated 1997)
≈ marks a conversion by molar mass, not a printed value.

Assays:
Type in all cases: cell-based
[1] = test system: B. subtilis ATCC 6633; experiment: MIC by agar dilution, B. subtilis ATCC 6633; details: B. subtilis ATCC 6633, agar dilution, Mueller-Hinton agar; for MIC: Bacillus subtilis, ATCC6633, 17 h, read-out: Minimal Inhibitory Concentration (MIC)
Summary of the method: (§1)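 Inoculum of 10^6 CFU per ml was spotted onto Mueller-Hinton agar plates carrying two-fold compound dilutions. Plates were held at 35°-37° C. for 17±1 hours before the minimum inhibitory concentration was recorded.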

[2] = test system: Staph. aureus ATCC 6538P; experiment: MIC by agar dilution, Staph. aureus ATCC 6538P; details: Staph. aureus ATCC 6538P, agar dilution, Mueller-Hinton agar; for MIC: Staphylococcus aureus, ATCC6538P, 17 h, read-out: Minimal Inhibitory Concentration (MIC)
Summary of the method: as §1

[3] = test system: Staph. aureus Smith; experiment: MIC by agar dilution, Staph. aureus Smith; details: Mueller-Hinton agar; for MIC: Staphylococcus aureus, 17 h, read-out: Minimal Inhibitory Concentration (MIC)
Summary of the method: as §1

[4] = test system: Staph. aureus C-57; experiment: MIC by agar dilution, Staph. aureus C-57; details: Mueller-Hinton agar; for MIC: Staphylococcus aureus, C57, 17 h, read-out: Minimal Inhibitory Concentration (MIC)
Summary of the method: as §1

[5] = test system: Staph. aureus C-5113; experiment: MIC by agar dilution, Staph. aureus C-5113; details: Mueller-Hinton agar; for MIC: Staphylococcus aureus, C5113, 17 h, read-out: Minimal Inhibitory Concentration (MIC)
Summary of the method: as §1

[6] = test system: Staph. aureus C-5216; experiment: MIC by agar dilution, Staph. aureus C-5216; details: Mueller-Hinton agar; for MIC: Staphylococcus aureus, C5216, 17 h, read-out: Minimal Inhibitory Concentration (MIC)
Summary of the method: as §1

[7] = test system: S. epidermidis ATCC 12228; experiment: MIC by agar dilution, S. epidermidis ATCC 12228; details: S. epidermidis ATCC 12228, agar dilution, Mueller-Hinton agar; for MIC: Staphylococcus epidermidis, ATCC12228, 17 h, read-out: Minimal Inhibitory Concentration (MIC)
Summary of the method: as §1

[8] = test system: Ent. aerogenes IFO 12979; experiment: MIC by agar dilution, Ent. aerogenes IFO 12979; details: Mueller-Hinton agar; for MIC: Klebsiella aerogenes, IFO12979, 17 h, read-out: Minimal Inhibitory Concentration (MIC)
Summary of the method: as §1

[9] = test system: Ent. cloacae IFO 13535; experiment: MIC by agar dilution, Ent. cloacae IFO 13535; details: Ent. cloacae IFO 13535, agar dilution, Mueller-Hinton agar; for MIC: Enterobacter cloacae, IFO13535, 17 h, read-out: Minimal Inhibitory Concentration (MIC)
Summary of the method: as §1

[10] = test system: E. coli NIHJ JC-2; experiment: MIC by agar dilution, E. coli NIHJ JC-2; details: E. coli NIHJ JC-2, agar dilution, Mueller-Hinton agar; for MIC: Escherichia coli, NIHJJC2, 17 h, read-out: Minimal Inhibitory Concentration (MIC)
Summary of the method: as §1

[11] = test system: E. coli No. 29; experiment: MIC by agar dilution, E. coli No. 29; details: E. coli No. 29, agar dilution, Mueller-Hinton agar; for MIC: Escherichia coli, 17 h, read-out: Minimal Inhibitory Concentration (MIC)
Summary of the method: as §1

[12] = test system: E. coli DY-1; experiment: MIC by agar dilution, E. coli DY-1; details: E. coli DY-1, agar dilution, Mueller-Hinton agar; for MIC: Escherichia coli, DY1, 17 h, read-out: Minimal Inhibitory Concentration (MIC)
Summary of the method: as §1

[13] = test system: K. pneumoniae NCTC 9632; experiment: MIC by agar dilution, K. pneumoniae NCTC 9632; details: K. pneumoniae NCTC 9632, agar dilution, Mueller-Hinton agar; for MIC: Klebsiella pneumoniae, NCTC9632, 17 h, read-out: Minimal Inhibitory Concentration (MIC)
Summary of the method: as §1

[14] = test system: M. morganii DY-1; experiment: MIC by agar dilution, M. morganii DY-1; details: M. morganii DY-1, agar dilution, Mueller-Hinton agar; for MIC: Morganella morganii, DY1, 17 h, read-out: Minimal Inhibitory Concentration (MIC)
Summary of the method: as §1

[15] = test system: Ps. aeruginosa ATCC 10145; experiment: MIC by agar dilution, Ps. aeruginosa ATCC 10145; details: Mueller-Hinton agar; for MIC: Pseudomonas aeruginosa, ATCC10145, 17 h, read-out: Minimal Inhibitory Concentration (MIC)
Summary of the method: as §1

[16] = test system: Ps. aeruginosa NCTC 10490; experiment: MIC by agar dilution, Ps. aeruginosa NCTC 10490; details: Mueller-Hinton agar; for MIC: Pseudomonas aeruginosa, NCTC10490, 17 h, read-out: Minimal Inhibitory Concentration (MIC)
Summary of the method: as §1

[17] = test system: Ps. aeruginosa DY-2; experiment: MIC by agar dilution, Ps. aeruginosa DY-2; details: Ps. aeruginosa DY-2, agar dilution, Mueller-Hinton agar; for MIC: Pseudomonas aeruginosa, DY2, 17 h, read-out: Minimal Inhibitory Concentration (MIC)
Summary of the method: as §1

[18] = test system: P. vulgaris NCTC 8313; experiment: MIC by agar dilution, P. vulgaris NCTC 8313; details: P. vulgaris NCTC 8313, agar dilution, Mueller-Hinton agar; for MIC: Proteus vulgaris, NCTC8313, 17 h, read-out: Minimal Inhibitory Concentration (MIC)
Summary of the method: as §1

[19] = test system: Prov. stuartii IFO 12930; experiment: MIC by agar dilution, Prov. stuartii IFO 12930; details: Mueller-Hinton agar; for MIC: Providencia stuartii, IFO12930, 17 h, read-out: Minimal Inhibitory Concentration (MIC)
Summary of the method: as §1

[20] = test system: Ser. marcescens IFO 12648; experiment: MIC by agar dilution, Ser. marcescens IFO 12648; details: Ser. marcescens IFO 12648, agar dilution, Mueller-Hinton agar; for MIC: Serratia marcescens, IFO12648, 17 h, read-out: Minimal Inhibitory Concentration (MIC)
Summary of the method: as §1

In the case of `CO/N=C(\C(=O)N[C@@H]1C(=O)N2C(C(=O)[O-])=C(C[n+]3ccn4c(C#N)ccc4c3C)CS[C@H]12)c1csc(N)n1` [Ex. 43, 7-β-[(Z)-2-(2-aminothiazol-4-yl)-2-methoxyiminoacetamido]-3-(1-methyl-6-cyanopyrrolo[1,2-a]pyrazinium-2-yl)methyl-3-cephem-4-carboxylate], the MIC [1] is reported as 0.2 µg/mL (≈ 0.362 µM), the MIC [2] is reported as 0.1 µg/mL (≈ 0.181 µM) and the MIC [3] is reported as 0.78 µg/mL (≈ 1.41 µM). It also gave an MIC [4] of 12.5 µg/mL (≈ 22.6 µM), an MIC [5] of 1.56 µg/mL (≈ 2.82 µM) and an MIC [6] of 0.78 µg/mL (≈ 1.41 µM). The MIC [7] was 0.012 µg/mL (≈ 0.0217 µM), the MIC [8] was 0.012 µg/mL (≈ 0.0217 µM) and the MIC [9] was 0.2 µg/mL (≈ 0.362 µM). For the same molecule, the MIC [10] was 0.025 µg/mL (≈ 0.0452 µM), the MIC [11] was 0.05 µg/mL (≈ 0.0905 µM) and the MIC [12] was 0.012 µg/mL (≈ 0.0217 µM). For the same molecule, the MIC [13] was 0.1 µg/mL (≈ 0.181 µM), the MIC [14] was 0.05 µg/mL (≈ 0.0905 µM) and the MIC [15] was 0.78 µg/mL (≈ 1.41 µM). It also gave an MIC [16] of 0.78 µg/mL (≈ 1.41 µM), an MIC [17] of 12.5 µg/mL (≈ 22.6 µM) and an MIC [18] of no more than 0.006 µg/mL. It also gave an MIC [19] of 0.012 µg/mL (≈ 0.0217 µM) and an MIC [20] of 0.05 µg/mL (≈ 0.0905 µM).
With `CCO/N=C(\C(=O)N[C@@H]1C(=O)N2C(C(=O)[O-])=C(C[n+]3ccn4c(C(N)=O)ccc4c3C)CS[C@H]12)c1csc(N)n1` [Ex. 44, 7-β-[(Z)-2-(2-aminothiazol-4-yl)-2-ethoxyiminoacetamido]-3-(6-carbamoyl-1-methylpyrrolo[1,2-a]pyrazinium-2-yl)methyl-3-cephem-4-carboxylate] the “Minimal Inhibitory Concentration (MIC)” value [1] was 0.390 µg/mL, the “Minimal Inhibitory Concentration (MIC)” value [2] was 0.200 µg/mL and the “Minimal Inhibitory Concentration (MIC)” value [3] was 0.780 µg/mL. For the same molecule, the “Minimal Inhibitory Concentration (MIC)” value [4] was 100.000 µg/mL, the “Minimal Inhibitory Concentration (MIC)” value [5] was 1.560 µg/mL and the “Minimal Inhibitory Concentration (MIC)” value [6] was 1.560 µg/mL. For the same molecule, the “Minimal Inhibitory Concentration (MIC)” value [7] was 0.100 µg/mL, the “Minimal Inhibitory Concentration (MIC)” value [8] was 0.050 µg/mL and the “Minimal Inhibitory Concentration (MIC)” value [9] was 0.100 µg/mL. The “Minimal Inhibitory Concentration (MIC)” value [10] was 0.050 µg/mL, the “Minimal Inhibitory Concentration (MIC)” value [11] was 0.025 µg/mL and the “Minimal Inhibitory Concentration (MIC)” value [12] was 0.025 µg/mL. The “Minimal Inhibitory Concentration (MIC)” value [13] was 0.050 µg/mL, the “Minimal Inhibitory Concentration (MIC)” value [14] was 0.100 µg/mL and the “Minimal Inhibitory Concentration (MIC)” value [15] was 3.130 µg/mL. The “Minimal Inhibitory Concentration (MIC)” value [16] was 0.780 µg/mL, the “Minimal Inhibitory Concentration (MIC)” value [17] was 6.250 µg/mL and the “Minimal Inhibitory Concentration (MIC)” value [18] was 0.050 µg/mL. The “Minimal Inhibitory Concentration (MIC)” value [19] was 0.012 µg/mL and the “Minimal Inhibitory Concentration (MIC)” value [20] was 0.050 µg/mL.
`CO/N=C(\C(=O)N[C@@H]1C(=O)N2C(C(=O)[O-])=C(C[n+]3ccn4c(Cl)ccc4c3C)CS[C@H]12)c1csc(N)n1` [Ex. 45, 7-β-[(Z)-2-(2-aminothiazol-4-yl)-2-methoxyiminoacetamido]-3-(6-chloro-1-methylpyrrolo[1,2-a]pyrazinium-2-yl)methyl-3-cephem-4-carboxylate] showed an MIC [1] of 0.1 µg/mL (≈ 0.178 µM), an MIC [2] of 0.1 µg/mL (≈ 0.178 µM) and an MIC [3] of 0.39 µg/mL (≈ 0.694 µM). The MIC [4] was 6.25 µg/mL (≈ 11.1 µM), the MIC [5] was 0.39 µg/mL (≈ 0.694 µM) and the MIC [6] was 0.78 µg/mL (≈ 1.39 µM). It also gave an MIC [7] of 0.012 µg/mL (≈ 0.0214 µM), an MIC [8] of 0.025 µg/mL (≈ 0.0445 µM) and an MIC [9] of 0.05 µg/mL (≈ 0.089 µM). The MIC [10] was 0.025 µg/mL (≈ 0.0445 µM), the MIC [11] was 0.012 µg/mL (≈ 0.0214 µM) and the MIC [12] was 0.012 µg/mL (≈ 0.0214 µM). It also gave an MIC [13] of 0.012 µg/mL (≈ 0.0214 µM), an MIC [14] of 0.012 µg/mL (≈ 0.0214 µM) and an MIC [15] of 3.13 µg/mL (≈ 5.57 µM). For the same molecule, the MIC [16] was 0.39 µg/mL (≈ 0.694 µM), the MIC [17] was 6.25 µg/mL (≈ 11.1 µM) and the MIC [18] was no more than 0.006 µg/mL. For the same molecule, the MIC [19] was no more than 0.006 µg/mL and the MIC [20] was 0.025 µg/mL (≈ 0.0445 µM).
